Data: US11965038B2, “Pharmaceutical composition comprising antibody binding specifically to lysyl-tRNA synthetase N-terminus as effective ingredient for preventing or treating immune cell migration-related disease” (Zymedi Co., Ltd., priority 2017, dated 2024)

Columns and labels:
[1] = system: migration and invasion of immune cells; conditions: ear skin wound models, liver ischemia-reperfusion injury models; from Korean applications 10-2017-0076718 and 10-2018-0069146; cited from earlier work
RAW 264.7 cells = experiment: Transwell migration assay with extracellular matrix proteins and laminin subtypes; assay type: cell-based
Description: In the extracellular matrix (ECM) that make up the blood vessels, it was identified which promotes the migration and invasion of monocytes/macrophages. Transwell migration assay was performed using collagen (collagen, Col), fibronectin (FN) and laminin (LN) as extracellular matrix. The specific experimental method is as follows. After transwells (Corning, #3421-5 mm) were coated with gelatin (0.5 mg/ml), RAW 264.7 cells (1×10^5 cells/well) were seeded into the top chamber. Fibronectin or Collagen was placed in the bottom chamber. Serum Free DMEM (500 μl) containing 10 μg/ml of Laminin (laminin mixture, Biolamina), Fibronectin or Collagen, respectively, was placed in the bottom chamber. After 24 hours, the cells were treated with 70% methanol for 30 minutes and fixed, and then stained with 50% Hematoxylin for 30 minutes. After removing non-migrating cells from the top of the membrane with a cotton swab, the membrane was taken and mounted on the slide. The migrating cells on the underside of the membrane were observed and quantified under a high magnification microscope.
The effects of laminin subtypes on immune cell migration and invasion were evaluated. A transwell cell migration assay was performed in the same manner as in the Example 1 using LN111, LN211, LN221, LN411, LN421, LN511, and LN521 at 1 μg/ml as various laminin subtype proteins (purchased from Biolamina). […]

KRS = experiment: Western blotting of KRS in cytosol and membrane fractions after LN421 treatment; assay type: cell-based; conditions: 1 μg/ml LN421, 0 h, 12 h, 24 h
Description: After seeding RAW 264.7 cells (2×10^6 cells) in 100 pie plate and incubating for 18 hr, the serum free-DMEM media was treated with 1 μg/ml LN421 and the cells were harvested at 0 h, 12 h, and 24 h. RAW 264.7 cell proteins were separated into cytosol and membrane fractions using the ProteoExtract® Subcellular Proteome Extraction Kit (Calbiotech, cat #539790). The obtained protein was subjected to electrophoresis, transferred to PVDF membrane (Millipore) and blocked with 3% skim milk. KRS was then detected by the western blotting. Specifically, KRS polyclonal antibody (rabbit, Neomics, Co. Ltd. #NMS-01-0005) was added to bind for 1 hour. Unbound antibody was removed and then anti-rabbit secondary antibody (Thermo Fisher Scientific, #31460) was added. After reacting with the secondary antibody, the film was developed in the dark room using ECL reagent as a substrate. The detected bands were compared to standard molecular markers to identify the bands corresponding to the size of the KRS. Antibodies against Na+/K+ATPase (Abcam, ab76020) and tubulin (Santa cruz SC-5286) were used to identify plasma membrane and cytosol markers, respectively.

[2] = system: pulmonary arterial hypertension (PAH) models; experiment: Echocardiography in MCT-induced PAH model; assay type: in vivo, SD rats; conditions: PAH rats, MCT alone: three animals
Description: (§1) To induce PAH in 7-week-old SD rats (Oriental Bio), 60 mpk of MCT (monocrotaline) were subcutaneously injected.

[3] = Body weight change in MCT-induced PAH model; assay type: in vivo, SD rats; conditions: sildenafil 25 mpk, n = 5
Description: as §1

Molecule: COc1ccc(CCN(Cc2ccc(C(=O)O)cc2)c2nc3cccc(F)c3s2)cc1 [BC-KI-00053, 4-({(7-fluorobenzo [d]thiazol-2-yl) [2-(4-methoxyphenyl)ethyl]amino}methyl) benzoic acid]
- migration and invasion of immune cells [1]: inhibited

Molecule: LN421: laminin subtype α4β2γ1, purchased from Biolamina
- migration of monocytes/macrophages by laminin subtype (RAW 264.7 cells; laminin subtypes at 1 μg/ml): specifically move in response
- amount of KRS detected in the cell membrane region (KRS): increased

Molecule: CCCc1nn(C)c2c(=O)[nH]c(-c3cc(S(=O)(=O)N4CCN(C)CC4)ccc3OCC)nc12 [Sildenafil, sildenafil]
- D-shaped left ventricle finding indicating pressure overload in the right ventricle [2]: three animals
- Relative change (weight) ([3]; MCT + Mock IgG 48.8 ± 7.8): 49.8 ± 10.5%
- Absolute change (weight) ([3]; MCT + Mock IgG 101.4 ± 14.2): 104.1 ± 26.4 g

Molecule: laminin
- migration of monocytes/macrophages (RAW 264.7 cells; collagen, fibronectin or laminin mixture 10 μg/ml in bottom chamber, 24 hours): most strongly promotes
